{
  "source": "patent US7141533B2",
  "about": "“Hetaryl-substituted heterocycles” (Bayer CropScience AG, priority 2000, dated 2006)",
  "key": {"[1]": {"system": "larvae of the mustard beetle (Phaedon cochleariae)", "assay": "Phaedon larvae test", "assay_type": "in vivo", "details": "cabbage leaves dipped", "method": "(§1) [table] To produce a suitable preparation of active compound, 1 part by weight of active compound is mixed with the stated amounts of solvent and emulsifier, and the concentrate is diluted with emulsifier-containing water to the desired concentration. Cabbage leaves (Brassica oleracea) are treated by being dipped into the preparation of active compound of the desired concentration and are populated with the larvae of the mustard beetle (Phaedon cochleariae) while the leaves are still moist. After the desired period of time, the kill in % is determined. 100% means that all beetle larvae have been killed; 0% means that none of the beetle larvae have been killed."}, "Setaria [2]": {"system": "Setaria", "assay": "Pre-emergence test", "assay_type": "in vivo", "details": "125 g ai/ha, after three weeks", "method": "(§2) [table] To produce a suitable preparation of active compound, 1 part by weight of active compound is mixed with the stated amount of solvent, the stated amount of emulsifier is added and the concentrate is diluted with water to the desired concentration. Seeds of the test plants are sown in normal soil. After about 24 hours, the soil is sprayed with the preparation of active compound such that the particular amounts of active compound desired are applied per unit area. The concentration of the spray liquor is chosen such that the particular amounts of active compound desired are applied in 1000 1 of water/ha. After three weeks, the degree of damage to the plants is rated in % damage in comparison to the development of the untreated control. [table]"}, "Lolium": {"system": "Lolium", "assay": "Pre-emergence test", "assay_type": "in vivo", "details": "125 g ai/ha, after three weeks", "method": "as §2"}, "oilseed rape [3]": {"system": "oilseed rape", "assay": "Pre-emergence test", "assay_type": "in vivo", "details": "125 g ai/ha, after three weeks", "method": "as §2"}, "Avena fatua [4]": {"system": "Avena fatua", "assay": "Pre-emergence test", "assay_type": "in vivo", "details": "125 g ai/ha, after three weeks", "method": "as §2"}, "Alopecurus [5]": {"system": "Alopecurus", "assay": "Pre-emergence test", "assay_type": "in vivo", "details": "125 g ai/ha, after three weeks", "method": "as §2"}, "Matricaria": {"system": "Matricaria", "assay": "Pre-emergence test", "assay_type": "in vivo", "details": "125 g ai/ha, after three weeks", "method": "as §2"}, "sugar beet": {"system": "sugar beet", "assay": "Pre-emergence test", "assay_type": "in vivo", "details": "125 g ai/ha, after three weeks", "method": "as §2"}, "Meloidogyne incognita": {"system": "Meloidogyne incognita", "assay": "Meloidogyne test", "assay_type": "in vivo", "details": "Meloidogyne incognita egg/larvae on lettuce in sand", "method": "[table] To produce a suitable preparation of active compound, 1 part by weight of active compound is mixed with the stated amounts of solvent and emulsifier, and the concentrate is diluted with water to the desired concentration. Containers are filled with sand, solution of active compound, Meloidogyne incognita egg/larvae suspension and lettuce seeds. The lettuce seeds germinate and the plants develop. On the roots, galls are formed. After the desired period of time, the nematicidal action in % is determined using the formation of galls as a measure. 100% means that no galls have been found; 0% means that the number of galls on the treated plants corresponds to that on the untreated control."}, "[6]": {"system": "caterpillars of the army worm (Spodoptera frugiperda)", "assay": "Spodoptera frugiperda test", "assay_type": "in vivo", "details": "cabbage leaves dipped", "method": "as §1, with “caterpillars” for “the larvae”, “army worm (Spodoptera frugiperda)” for “mustard beetle (Phaedon cochleariae)”, “caterpillars” for “beetle larvae”"}, "[7]": {"system": "peach aphid (Myzus persicae)", "assay": "Myzus test", "assay_type": "in vivo", "details": "cabbage leaves dipped", "method": "as §1, with “oleracea) which are heavily infested by the peach aphid (Myzus persicae)” for “oleracea)”, “concentration.” for “concentration and are populated with the larvae of the mustard beetle (Phaedon cochleariae) while the leaves are still moist.”, “aphids” for “beetle larvae”"}, "Chenopodium": {"system": "Chenopodium", "assay": "Post-emergence test", "assay_type": "in vivo", "details": "250 g ai/ha, after three weeks", "method": "as §2, with “Test plants” for “Seeds”, “a height of 5 to 15 cm” for “the test plants”, “are” for “are sown in normal soil. After about 24 hours, the soil is”"}, "Echinochloa": {"system": "Echinochloa", "assay": "Post-emergence test", "assay_type": "in vivo", "details": "250 g ai/ha, after three weeks", "method": "as §2, with “Test plants” for “Seeds”, “a height of 5 to 15 cm” for “the test plants”, “are” for “are sown in normal soil. After about 24 hours, the soil is”"}, "Setaria [8]": {"system": "Setaria", "assay": "Post-emergence test", "assay_type": "in vivo", "details": "250 g ai/ha, after three weeks", "method": "as §2, with “Test plants” for “Seeds”, “a height of 5 to 15 cm” for “the test plants”, “are” for “are sown in normal soil. After about 24 hours, the soil is”"}, "oilseed rape [9]": {"system": "oilseed rape", "assay": "Post-emergence test", "assay_type": "in vivo", "details": "250 g ai/ha, after three weeks", "method": "as §2, with “Test plants” for “Seeds”, “a height of 5 to 15 cm” for “the test plants”, “are” for “are sown in normal soil. After about 24 hours, the soil is”"}, "Avena fatua [10]": {"system": "Avena fatua", "assay": "Post-emergence test", "assay_type": "in vivo", "details": "250 g ai/ha, after three weeks", "method": "as §2, with “Test plants” for “Seeds”, “a height of 5 to 15 cm” for “the test plants”, “are” for “are sown in normal soil. After about 24 hours, the soil is”"}, "Alopecurus [11]": {"system": "Alopecurus", "assay": "Post-emergence test", "assay_type": "in vivo", "details": "250 g ai/ha, after three weeks", "method": "as §2, with “Test plants” for “Seeds”, “a height of 5 to 15 cm” for “the test plants”, “are” for “are sown in normal soil. After about 24 hours, the soil is”"}, "Amaranthus": {"system": "Amaranthus", "assay": "Post-emergence test", "assay_type": "in vivo", "details": "250 g ai/ha, after three weeks", "method": "as §2, with “Test plants” for “Seeds”, “a height of 5 to 15 cm” for “the test plants”, “are” for “are sown in normal soil. After about 24 hours, the soil is”"}, "[12]": {"assay": "logP (HPLC; acetonitrile)", "assay_type": "physicochemical", "details": "acidic; HPLC; acetonitrile", "excerpt": "Yield: 2.4 g ( ? 41.62% of theory), logP (acidic) 4.54 (HPLC; acetonitrile)."}, "rice": {"system": "rice", "assay": "Post-emergence test", "assay_type": "in vivo", "details": "250 g ai/ha, after three weeks", "method": "as §2, with “Test plants” for “Seeds”, “a height of 5 to 15 cm” for “the test plants”, “are” for “are sown in normal soil. After about 24 hours, the soil is”"}, "Stellaria": {"system": "Stellaria", "assay": "Post-emergence test", "assay_type": "in vivo", "details": "250 g ai/ha, after three weeks", "method": "as §2, with “Test plants” for “Seeds”, “a height of 5 to 15 cm” for “the test plants”, “are” for “are sown in normal soil. After about 24 hours, the soil is”"}, "Digitaria": {"system": "Digitaria", "assay": "Post-emergence test", "assay_type": "in vivo", "details": "250 g ai/ha, after three weeks", "method": "as §2, with “Test plants” for “Seeds”, “a height of 5 to 15 cm” for “the test plants”, “are” for “are sown in normal soil. After about 24 hours, the soil is”"}, "Abutilon": {"system": "Abutilon", "assay": "Post-emergence test", "assay_type": "in vivo", "details": "250 g ai/ha, after three weeks", "method": "as §2, with “Test plants” for “Seeds”, “a height of 5 to 15 cm” for “the test plants”, “are” for “are sown in normal soil. After about 24 hours, the soil is”"}},
  "data": [
    {"smiles": "COC1CCC2(CC1)OC(=O)C(c1nc(-c3ccc(Cl)cc3)sc1C)=C2O", "note": "(stereo not drawn) [Example I-2-A-a-1]", "values": [
      {"measurement": "kill of beetle larvae", "setting": "[1]", "value": "good activity"},
      {"measurement": "% damage Setaria", "setting": "Setaria [2]", "value": 100, "unit": "%"},
      {"measurement": "% damage Lolium", "setting": "Lolium", "value": 100, "unit": "%"},
      {"measurement": "% damage oilseed rape", "setting": "oilseed rape [3]", "value": 0, "unit": "%"},
      {"measurement": "% damage Avena fatua", "setting": "Avena fatua [4]", "value": 100, "unit": "%"},
      {"measurement": "% damage Alopecurus", "setting": "Alopecurus [5]", "value": 90, "unit": "%"},
      {"measurement": "% damage Matricaria", "setting": "Matricaria", "value": 100, "unit": "%"},
      {"measurement": "% damage sugar beet", "setting": "sugar beet", "value": 0, "unit": "%"},
      {"measurement": "nematicidal action (formation of galls)", "setting": "Meloidogyne incognita", "value": "good activity"},
      {"measurement": "kill of caterpillars", "setting": "[6]", "value": "good activity"},
      {"measurement": "kill of aphids", "setting": "[7]", "value": "good activity"},
      {"measurement": "% damage Chenopodium", "setting": "Chenopodium", "value": 70, "unit": "%"},
      {"measurement": "% damage Echinochloa", "setting": "Echinochloa", "value": 100, "unit": "%"},
      {"measurement": "% damage Setaria", "setting": "Setaria [8]", "value": 100, "unit": "%"},
      {"measurement": "% damage oilseed rape", "setting": "oilseed rape [9]", "value": 20, "unit": "%"},
      {"measurement": "% damage Avena fatua", "setting": "Avena fatua [10]", "value": 95, "unit": "%"},
      {"measurement": "% damage Alopecurus", "setting": "Alopecurus [11]", "value": 80, "unit": "%"},
      {"measurement": "% damage Amaranthus", "setting": "Amaranthus", "value": 70, "unit": "%"}
    ]},
    {"smiles": "COC1CCC2(CC1)NC(=O)C(c1nc(-c3ccc(C)cc3)sc1C)=C2O", "note": "(single isomer, unassigned) [Example I-1-A-a-8]", "values": [
      {"measurement": "kill of beetle larvae", "setting": "[1]", "value": "good activity"},
      {"measurement": "kill of aphids", "setting": "[7]", "value": "good activity"}
    ]},
    {"smiles": "CCOC(=O)C1(OC(=O)Cc2nc(-c3ccc(Cl)cc3)sc2C)CCC(OC)CC1", "note": "(stereo not drawn) [III-A-1]", "values": [
      {"measurement": "chromatographic logP", "setting": "[12]", "value": 4.54}
    ]},
    {"smiles": "COC1CCC2(CC1)NC(=O)C(c1nc(-c3ccc(Cl)cc3)sc1C)=C2O", "note": "(single isomer, unassigned) [Example I-1-A-a-3]", "values": [
      {"measurement": "kill of beetle larvae", "setting": "[1]", "value": "good activity"},
      {"measurement": "% damage rice", "setting": "rice", "value": 10, "unit": "%"},
      {"measurement": "% damage Echinochloa", "setting": "Echinochloa", "value": 100, "unit": "%"},
      {"measurement": "% damage Avena fatua", "setting": "Avena fatua [10]", "value": 100, "unit": "%"},
      {"measurement": "% damage Stellaria", "setting": "Stellaria", "value": 90, "unit": "%"},
      {"measurement": "% damage Digitaria", "setting": "Digitaria", "value": 100, "unit": "%"}
    ]},
    {"smiles": "COC1CCC2(CC1)NC(=O)C(c1nc(-c3ccc(Cl)cc3)sc1C)=C2OC(=O)C(C)C", "note": "(stereo not drawn) [Example I-1-A-b-1]", "values": [
      {"measurement": "% damage Echinochloa", "setting": "Echinochloa", "value": 100, "unit": "%"},
      {"measurement": "% damage Setaria", "setting": "Setaria [8]", "value": 100, "unit": "%"},
      {"measurement": "% damage Avena fatua", "setting": "Avena fatua [10]", "value": 100, "unit": "%"},
      {"measurement": "% damage Alopecurus", "setting": "Alopecurus [11]", "value": 95, "unit": "%"},
      {"measurement": "% damage Abutilon", "setting": "Abutilon", "value": 80, "unit": "%"},
      {"measurement": "% damage Amaranthus", "setting": "Amaranthus", "value": 80, "unit": "%"}
    ]},
    {"smiles": "CCOC(=O)OC1=C(c2nc(-c3ccc(Cl)cc3)sc2C)C(=O)NC12CCC(OC)CC2", "note": "(stereo not drawn) [Example I-1-A-c-1]", "values": [
      {"measurement": "kill of beetle larvae", "setting": "[1]", "value": "good activity"},
      {"measurement": "kill of caterpillars", "setting": "[6]", "value": "good activity"},
      {"measurement": "% damage Echinochloa", "setting": "Echinochloa", "value": 95, "unit": "%"},
      {"measurement": "% damage Setaria", "setting": "Setaria [8]", "value": 90, "unit": "%"},
      {"measurement": "% damage Avena fatua", "setting": "Avena fatua [10]", "value": 95, "unit": "%"},
      {"measurement": "% damage Alopecurus", "setting": "Alopecurus [11]", "value": 80, "unit": "%"}
    ]},
    {"smiles": "Cc1sc(-c2ccc(Cl)cc2)nc1C1=C(O)C(C)(C)NC1=O", "note": "[Example I-1-A-a-2]", "values": [
      {"measurement": "kill of beetle larvae", "setting": "[1]", "value": "good activity"},
      {"measurement": "kill of caterpillars", "setting": "[6]", "value": "good activity"},
      {"measurement": "% damage Echinochloa", "setting": "Echinochloa", "value": 90, "unit": "%"},
      {"measurement": "% damage Setaria", "setting": "Setaria [8]", "value": 95, "unit": "%"},
      {"measurement": "% damage Alopecurus", "setting": "Alopecurus [11]", "value": 70, "unit": "%"},
      {"measurement": "% damage Amaranthus", "setting": "Amaranthus", "value": 90, "unit": "%"}
    ]}
  ]
}
